Measurements: patent US20110009453A1, “S1P3 RECEPTOR INHIBITORS FOR TREATING INFLAMMATION” (priority 2008, published 2011)
Where two headings read alike, the source gives them in different places.

Tests used:
human S1P3 receptor = biological target: T1, human S1P3 receptor (Homo sapiens, UniProt Q99500); assay: FLIPR assay in T24 cells stably expressing the human S1P3 receptor; format: cell-based; details: for inhibition at 10 µM: T-24, read-out: S1P3 percent inhibition (in parenthesis)
T1 construct: expressed in transfected cells
T1 sequence (Q99500 whole entry): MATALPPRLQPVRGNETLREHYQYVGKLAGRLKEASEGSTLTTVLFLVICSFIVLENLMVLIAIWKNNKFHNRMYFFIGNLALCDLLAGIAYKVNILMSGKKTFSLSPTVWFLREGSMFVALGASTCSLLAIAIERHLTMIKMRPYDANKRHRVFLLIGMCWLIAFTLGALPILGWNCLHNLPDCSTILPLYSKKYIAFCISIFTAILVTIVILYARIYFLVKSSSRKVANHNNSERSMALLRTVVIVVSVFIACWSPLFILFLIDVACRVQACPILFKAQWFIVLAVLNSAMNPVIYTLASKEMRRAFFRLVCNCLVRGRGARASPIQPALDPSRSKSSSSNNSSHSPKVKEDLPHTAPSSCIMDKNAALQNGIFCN
Method: Another method of determining if a compound is an S1P3 receptor inhibitor is with a FLIPR assay. An example of this method is described in U.S. patent application Ser. No. 11/675,168, the contents of which are incorporated herein by reference. According to that application, compounds may be assessed for their ability to activate or block activation of the human S1P3 receptor in T24 cells stably expressing the human S1P3 receptor. In this assay ten thousand cells/well are plated into 384-well poly-D-lysine coated plates one day prior to use. The growth media for the S1P3 receptor expressing cell line is McCoy's 5A medium supplemented with 10% charcoal-treated fetal bovine serum (FBS), 1% antibiotic-antimycotic and 400 μg/ml geneticin. On the day of the experiment, the cells are washed twice with Hank's Balanced Salt Solution supplemented with 20 mM HEPES (HBSS/Hepes buffer). The cells are then dye loaded with 2 uM Fluo-4 diluted in the HBSS/Hepes buffer with 1.25 mM Probenecid and incubated at 37° C. for 40 minutes. Extracellular dye is removed by washing the cell plates four times prior to placing the plates in the FLIPR (Fluorometric Imaging Plate Reader, Molecular Devices). Ligands are diluted in HBSS/Hepes buffer and prepared in 384-well microplates. The positive control, S1P, is diluted in HBSS/Hepes buffer with 4 mg/ml fatty acid free bovine serum albumin. The FLIPR transfers 12.5 μl from the ligand microplate to the cell plate and takes fluorescent measurements for 75 seconds, taking readings every second, and then for 2.5 minutes, taking readings every 10 seconds. Drugs are tested over the concentration range of to 0.61 nM to 10,000 nM. Data for Ca^+2 responses is obtained in arbitrary fluorescence units and not translated into Ca^+2 concentrations. IC50 values are determined through a […] analysis using the Levenburg Marquardt algorithm.
Examples of such compounds include the following. […] The EC50 and IC50 values expressed in the following table were obtained in the FLIPR assay described above. EC50 or IC50 values are stated first, followed by percent efficacy or percent inhibition stated in parenthesis. In this table and the next, percent efficacy is defined as percent of receptor activity induced by a test compound at the highest dose tested (10 μM) relative to the receptor activity induced by 5 nM sphingosine-1-phosphate, and percent inhibition is defined as percent of receptor activity induced by 5 nM sphingosine-1-phosphate that is inhibited by a test compound at the highest dose tested (10 μM). “NA” means that no activity was detected at highest dose tested; “ND” means not determined.
The IC50 values expressed below were obtained in the FLIPR assay described above. IC50 values are stated first (except as otherwise noted), followed by percent efficacy or percent inhibition in parenthesis.

S1P1 receptor = S1P1 receptor (Homo sapiens, UniProt P21453); assay: FLIPR assay (Ca2+ response), S1P1 receptor; format: cell-based
S1P1 receptor, sequence (P21453 whole entry): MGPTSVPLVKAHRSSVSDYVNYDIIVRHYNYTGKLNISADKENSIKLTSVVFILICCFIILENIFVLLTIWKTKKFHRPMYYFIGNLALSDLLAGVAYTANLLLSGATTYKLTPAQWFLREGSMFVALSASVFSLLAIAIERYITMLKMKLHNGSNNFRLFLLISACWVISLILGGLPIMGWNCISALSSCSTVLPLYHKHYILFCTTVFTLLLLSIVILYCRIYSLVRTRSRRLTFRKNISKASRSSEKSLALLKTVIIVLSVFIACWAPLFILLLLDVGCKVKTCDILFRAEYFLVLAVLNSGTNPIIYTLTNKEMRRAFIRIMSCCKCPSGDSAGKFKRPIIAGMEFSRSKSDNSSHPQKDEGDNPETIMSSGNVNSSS

[1] = percent of activity induced by 5 nM sphingosine-1-phosphate inhibited at 10 μM, table of additional selective S1P3 inhibitors
[2] = FLIPR, table of additional selective S1P3 inhibitors, read-out: S1P3 (IC50)
[3] = FLIPR, values given in μM, read-out: S1P3 (IC50)
[4] = percent of activity induced by 5 nM sphingosine-1-phosphate inhibited at highest dose tested (10 μM)
[5] = tested 0.61 nM to 10,000 nM, NA = no activity detected at highest dose tested, read-out: S1P1 (EC50)
[6] = FLIPR, values in nM, read-out: S1P3 (IC50)

| Structure (SMILES) | inhibition at 10 µM (human S1P3 receptor; [1]) | IC50 (human S1P3 receptor; [3]) | inhibition at 10 µM (human S1P3 receptor; [4]) | other results |
| --- | --- | --- | --- | --- |
| CC(C)c1c(C(=O)NCc2ccc(F)c(F)c2)c2cc(O)ccc2n1Cc1ccccc1 | 98% |  |  | IC50 (human S1P3 receptor): 0.035 µM |
| O=C(NCc1ccc(F)c(F)c1)c1c(C2CCCC2)n(Cc2ccccc2)c2ccc(O)cc12 | 100% |  |  | IC50 (human S1P3 receptor; [2]): 0.031 µM |
| CC(C)c1c(C(=O)NCc2ccc(F)c(F)c2)c2ccccc2n1Cc1ccccc1 | 100% |  |  | IC50 (human S1P3 receptor): 0.209 µM |
| CCOc1ccc2c(C(=O)NCc3ccc(F)c(F)c3)c(C(C)C)n(Cc3ccccc3)c2c1 | 100% |  |  | IC50 (human S1P3 receptor): 0.019 µM |
| CCCOc1ccc2c(C(=O)NCc3ccc(F)c(F)c3)c(C(C)C)n(Cc3ccccc3)c2c1 | 100% |  |  | IC50 (human S1P3 receptor): 0.005 µM |
| CC(C)Oc1ccc2c(C(=O)NCc3ccc(F)c(F)c3)c(C(C)C)n(Cc3ccccc3)c2c1 | 100% |  |  | IC50 (human S1P3 receptor): 0.006 µM |
| O=C(NCc1ccc(F)c(F)c1)c1c(C2CCCC2)n(Cc2ccccn2)c2ccc(O)cc12 | 99% |  |  | IC50 (human S1P3 receptor; [2]): 0.017 µM |
| O=P(O)(O)CCCNCc1ccc(-c2ccccc2)c(-c2ccccc2)n1 [Compound 146] |  | 1.6 µM | 83% |  |
| Cc1ccc(-c2ccc(CNCCCP(=O)(O)O)nc2-c2ccccc2)cc1 [Compound 147] |  |  | 98% | EC50 (S1P1 receptor; [5]): 121 nM; IC50 (human S1P3 receptor; [6]): 0.231 µM |
| CCc1ccc(-c2ccc(CNCCCP(=O)(O)O)nc2-c2ccccc2)cc1 [Compound 148] |  |  | 98% | EC50 (S1P1 receptor; [5]): 170 nM; IC50 (human S1P3 receptor; [6]): 0.319 µM |
| CCc1ccc(-c2ccc(CNCCP(=O)(O)O)nc2-c2ccccc2)cc1 [Compound 149] |  | 1.8 µM | 99% |  |
| O=P(O)(O)CCCNCc1ccc(-c2ccc(C(F)(F)F)cc2)c(-c2ccccc2)n1 [Compound 150] |  |  | 95% |  |
| CCc1ccc(-c2ccc(CNCCCP(=O)(O)O)nc2-c2ccncc2)cc1 [Compound 151] |  | 1.1 µM | 95% |  |
| CCc1ccc(-c2ccc(CNCCP(=O)(O)O)nc2-c2ccncc2)cc1 [Compound 152] |  | 1.8 µM | 68% |  |
| CCc1ccc(-c2ccc(CNCCCCP(=O)(O)O)nc2-c2ccccc2)cc1 [Compound 153] |  |  | 30% |  |
| CCCc1ccc(-c2ccc(CNCCCP(=O)(O)O)nc2-c2ccccc2)cc1 [Compound 154] |  |  | 98% | EC50 (S1P1 receptor; [5]): 114 nM; IC50 (human S1P3 receptor; [6]): 0.319 µM |
| CCc1ccc(-c2ccc(COCCCP(=O)(O)O)nc2-c2ccccc2)cc1 [Compound 155] |  | 4 µM | 27% |  |
| Cc1ccc(-c2ccc(COCCCP(=O)(O)O)nc2-c2ccccc2)cc1 [Compound 156] |  | 1.9 µM | 11% |  |
| CCc1ccc(-c2ccc(CNCCCP(=O)(O)O)nc2-c2ccccc2)cc1 [drawing 165] |  |  |  | EC50 (S1P1 receptor; table of additional selective S1P3 inhibitors, read-out: S1P1 EC50 (noted in IC50 column)): 170 nM; IC50 (human S1P3 receptor; [2]): 0.319 µM; S1P3 percent inhibition (in parenthesis) (human S1P3 receptor; [1]): 98% |
